Assay results from US20050203164A1, “Use of acylaminoalkenylene-amide derivatives in functional motility disorders of the viscera” (priority 2002, published 2005).
No end group written: not given here.

Legend:
[1] = test system: conscious guinea pigs; assay: restraint stress-induced visceral hypersensitivity, visceromotor response to colorectal distension; format: in vivo, guinea pig; settings: restraint stress-induced colonic hypersensitivity, p<0.05 ANOVA post-hoc Dunnett's test
Description: (§1) In conscious guinea pigs, two experimental paradigms are applied to induce visceral hypersensitivity, i) restraint stress (immobilization of the animals in a tube) and ii) colonic tissue irritation (colonic instillation of acetic acid, 0.6% in saline, 1.5 ml, 2 cm proximal to the anus). Colorectal distension is performed by inflating a balloon to a net pressure (at the colonic wall) of 20 mmHg (26.7 mbar) for 10 minutes before and following induction of visceral hypersensitivity. During the distension period the visceromotor response, i.e. the number and quality of abdominal contractions (body arching and lifting of pelvic structures) are recorded and quantified in a blinded fashion (Al-Chaer et al., Gastroenterology 2000; 119: 1276-1285). Following the performance of baseline colorectal distension protocols, vehicle or the compound of formula II (3 and 10 mg/kg) are dosed orally one hour prior to the second colorectal distensions, which are done after the induction of visceral hypersensitivity. The effects of vehicle and the compound of formula II are assessed in 6-8 animals. […] The compound of formula II reverses the exaggerated behavioural pain responses upon colorectal balloon distensions in both restraint stress-induced and tissue irritation-induced colonic hypersensitivity.

[2] = test system: conscious guinea pigs; assay: colonic tissue irritation (acetic acid)-induced visceral hypersensitivity, visceromotor response to colorectal distension; format: in vivo, guinea pig; settings: p<0.05 ANOVA post-hoc Dunnett's test
Description: as §1

[3] = test system: submucosalmucosa preparations of guinea pig colon; assay: epithelial secretion (electrogenic chloride secretion), Ussing chamber short circuit currents; format: cell-based
Description: Epithelial secretion is tested in submucosalmucosa preparations of guinea pig colon. Using Ussing chamber techniques (Frieling et al., Naunyn Schmiedebergs Arch. Pharmacol. 1999; 359: 71-79) short circuit currents are recorded, and epithelial secretion (electrogenic chloride secretion) is stimulated via cumulative treatment with substance P (0.1 nM up to 10 μM); it triggers secretion (increases in short circuit currents) in a concentration-dependent fashion (pD2=7.50 ).

[4] = test system: isolated segments of guinea pig ileum; assay: Substance P-mediated exaggerated peristalsis in organ baths (peristaltic reflex model); format: cell-based
Text: Substance P—mediated exaggerated peristalsis is studied in Mayflower organ baths using isolated segments of guinea pig ileum (Holzer et al., J. Pharmacol. Exp. Ther. 1995; 274: 322-328). The lumen of ileal segments is perfused with Krebs-Henseleit solution, and intraluminal pressures are continuously recorded. […] Any wave of peristaltic contractions results in a spike-like increase in intraluminal pressure and causes a partial emptying of fluid from the segment. Pressure thresholds triggering peristaltic contractions are used to quantify the effects of the compound of formula II.

[5] = 3 mg/kg p.o. one hour prior to distension
[6] = 10 mg/kg p.o. one hour prior to distension

Row | Compound | reversal of exaggerated behavioural pain responses upon colorectal balloon distension [1, 5] | reversal of exaggerated behavioural pain responses upon colorectal balloon distension [1, 6] | reversal of exaggerated behavioural pain responses upon colorectal balloon distension [2, 5] | reversal of exaggerated behavioural pain responses upon colorectal balloon distension [2, 6] | pA2 (Schild plot analysis), competitive inhibition of substance P-induced electrogenic chloride secretion ([3]; 30 nM, 100 nM and 300 nM) | apparent pA2, competitive inhibition of substance P-evoked exaggerated peristalsis ([4]; 30 nM) | apparent pA2, competitive inhibition of substance P-evoked exaggerated peristalsis ([4]; 100 nM) | pD2, stimulation of secretion (increases in short circuit currents) ([3]; cumulative treatment 0.1 nM up to 10 μM) | pD2, lowering of pressure thresholds triggering peristaltic contractions ([4]; cumulative application 1 nM up to 30 μM)
1 | CN(C(=O)c1cc(C(F)(F)F)cc(C(F)(F)F)c1)[C@@H](/C=C/C(=O)N[C@@H]1CCCCNC1=O)Cc1ccc(Cl)c(Cl)c1 [compound of formula II, (4R)-4-[N′-methyl-N′-(3,5-bistrifluoromethylbenzoyl)amino]-4-(3,4-dichlorobenzyl)-but-2-enoic acid N-[(R)-epsilon-caprolactam-3-yl]-amide] | statistically significant | statistically significant | statistically significant | statistically significant | 7.94 | 7.35 | 7.23 |  | 
2 | substance P: agonist applied cumulatively to evoke exaggerated peristalsis and epithelial chloride secretion (RPKPQQFFGLM; ends and bridges not checked; UniProt P20366 58-68, looked up) [reference compound] |  |  |  |  |  |  |  | 7.50 | 7.20
